Reference: patent US20050130890A1, “Amyloid beta is a ligand for FPR class receptors” (priority 2001, published 2005)

Legend:
mouse FPR2 = biological target: T1, mouse FPR2 (Mus musculus, UniProt O88536); assay: Calcium flux in FPR2-transfected HEK 293 cells; type: cell-based; details: 250 ng/ml pertussis toxin for 4 h
T1 construct: expressed in transfected cells; host or cells: HEK 293
T1 sequence (O88536 1-351): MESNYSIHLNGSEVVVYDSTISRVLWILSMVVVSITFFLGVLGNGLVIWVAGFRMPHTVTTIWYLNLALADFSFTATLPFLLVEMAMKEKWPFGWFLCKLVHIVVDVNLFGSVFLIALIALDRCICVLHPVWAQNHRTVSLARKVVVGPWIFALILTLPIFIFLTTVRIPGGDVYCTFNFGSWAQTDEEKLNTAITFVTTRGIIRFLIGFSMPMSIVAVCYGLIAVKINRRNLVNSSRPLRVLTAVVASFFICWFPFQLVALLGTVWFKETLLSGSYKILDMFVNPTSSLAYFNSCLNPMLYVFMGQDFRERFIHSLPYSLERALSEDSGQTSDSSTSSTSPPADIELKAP
From the text: Cell Lines. Construction of human embryonic kidney (HEK) 293 cell lines expressing human formylpeptide receptor (FPR), human formylpeptide receptor-like 1 receptor (FPRL1R), mouse FPR, mouse FPR2, mouse lipoxin A4 receptor (encoded by Fpr-rs1), a mouse orphan receptor encoded by Fpr-rs3, and human CCR5 and CX3CR1 has been previously described (Hartt J. K. et al. 1999 J Exp Med 190:741-747; Combadiere C. et al. 1996 J Leukocyte Biol 60:147-152; Combadiere C. et al. 1998 J Biol Chem 273:23799-23804; Gao J.-L. et al. 1998 Genomics 51:270-276). Fpr-rs1 and Fpr-rs3 were tested because of their high structural similarity to the known formylpeptide receptors and because they are also expressed in phagocytes (Gao J.-L. et al. 1998 Genomics 51:270-276). […]
Calcium Flux Analysis. […] Data were recorded every 200 ms as the relative ratio of fluorescence emitted at 510 nm following sequential excitation at 340 and 380 nm. The following ligands were evaluated: Aβ (nonfibrillated, human residues 1-42; California Peptide Research; Napa, Calif.), fMet-Leu-Phe (fMLF; Sigma), ATP (Life Technologies), and the chemokines RANTES (regulated upon activation normal T-cell expressed and secreted), SDF-1 (stromal cell-derived factor-1), 1-309, fractalkine, MIP-1α (macrophage inflammatory protein-1α), and KC (Peprotech, Rocky Hill, N.J.). […]

human monocytes = assay: Chemotaxis (migration) of human monocytes, 48-well chamber; type: cell-based; details: PT 100 ng/ml, 37° C., 30 min
From the text: Reagents and cells. Aβ peptide (Aβ42) and the peptide with reversed sequence (Aβ42-1) were purchased from California Peptide Research (Napa, Calif.). All peptides were examined for endotoxin contamination and were negative at highest concentrations used in the study. Human peripheral blood monocytes were isolated from buffy coats (National Institutes of Health Clinical Center, Bethesda, Md.) enriched for mononuclear cells by using iso-osmotic Percoll gradient. The purity of the cell preparations was examined by morphology and was >90%. Rat basophilic leukemia cell line (RBL-2H3) transfected with epitope-tagged N-formylpeptide receptor (FPR) (designated ETFR) was a kind gift of Dr. R. Snyderman (Duke University, Durham, N.C.). cDNA cloning and establishment of FPRL1-transfected human embryonic kidney (HEK) 293 cells (FPRL1/293) were described previously (Gao J. L. & Murphy P. M. 1993 J Biol Chem 268:[…]). All the transfected cells were maintained in culture media as described (Su S. B. et al. 1999 J Exp Med 189:395-402).
Chemotaxis assays and measurement of calcium mobilization. Chemotaxis assays were performed using 48-well chemotaxis chambers (Deng X. et al. 1999 Blood 94:1165-1673). The results were expressed as the mean number (±SD) of migrated cells in three high-powered fields in three replicate samples. Chemotaxis index, which represented the fold increase in the number of cells migrated in response to chemoattractants over the cell response to control medium, also was used. Ca^+ mobilization was measured by stimulating fura-2 AM-loaded human monocytes or receptor-transfected cells with various agents (Deng X. et al. 1999 Blood 94:1165-1673; Su S. B. et al. 1999 J Exp Med 189:395-402) and recording the ratio of fluorescence at 340 and 380 nm in a luminescence spectrometer with FL WinLab program (Perkin-Elmer, Beaconsfield, UK).

pertussis toxin
effect of pretreatment on Aβ calcium flux signaling (mouse FPR2): completely blocked | effect of preincubation on monocyte migration in response to Aβ42 (human monocytes): completely abolished
